Source: paper PMC9967013, “A Theranostic Small-Molecule Prodrug Conjugate for Neuroendocrine Prostate Cancer” (Pharmaceutics, 2023)
Read-outs that look alike come from different tables or passages of the source.

Legend:
SSTR2^high AR42J cells = assay: Internalization assay; format: cell-based; conditions: after 60 min, ~5 × 10^5 CPM, acid strip (glycine pH 3.0), gamma counting, n = 3
[1] = test system: SSTR2^high AR42J and SSTR2^low PC3-Flu cells; assay: SSTR2-selective cell uptake assay; format: cell-based; conditions: 1 h incubation at r.t., binding buffer (20 mM tris, 150 mM NaCl, pH 7.4), ~7.1 × 10^5 CPM, gamma counting, uptake in SSTR2^low cells set at 1, n = 3
PC3 cells = assay: Cell viability assay (MTT); format: cell-based, human; conditions: OD 570 nm, read-out: EC50 (cytotoxicity)
Experimental: PC3 cells (3000–5000 cells/well) were seeded onto a 96-well plate. After one day, freshly prepared RPMI media containing different concentrations (0, 1, 5, 10 µM; n = 5) of FTY720 (Selleckchem, Houston, TX, USA) or compound 10 (0, 1, 3, 15, 30 µM; n = 5) were added to the cells, and the mixtures were incubated for 48 or 72 h. The relative number of viable cells was determined by an assay using 3-(4,5-dimethylthiazol-2-yl) -2,5-diphenyltetrazolium bromide (MTT) (Sigma-Aldrich, Saint-Louis, MO, USA), according to the manufacturer’s instructions, on a microplate reader at OD 570 nm. The experiment was repeated in triplicate, and data were represented as the mean ± standard deviation (s.d).

[2] = test system: SSTR2^low PC3_sgPTP1B xenografts; assay: Small animal PET/CT imaging, tumor uptake in SSTR2^low xenograft; conditions: same mice, i.v. 3–4.4 MBq, 60-min dynamic PET
[3] = test system: SSTR2^high PC3_VC xenografts; assay: Small animal PET/CT imaging, tumor uptake in SSTR2^high xenograft; conditions: same mice, i.v. 3–4.4 MBq, 60-min dynamic PET
human cathepsin B = biological target: T1, human cathepsin B (Homo sapiens, UniProt P07858); assay: In vitro cathepsin-B-mediated release assay; format: in vitro ADME; conditions: 37 °C, 1 h
T1 construct: purchased Sino Biological Inc
Experimental: A comparative cathepsin-B-mediated release assay was performed with compound 13 in the presence vs. absence of human cathepsin B (Sino Biological Inc., Chesterbrook, PA, USA). Briefly, compound 13 (150 µg) was dissolved in 60 µL of 100 mM citrate buffer (pH 5.5), followed by adding 300 µg of cysteine. Then, 20 µg of human cathepsin B in 40 µL of 100 mM citrate buffer was added to the mixture and incubated at 37 °C for 1 h. At the end of the incubation, the solution (20 µL) was sampled for HPLC and LC–MS analysis. Controls of this assay included compound 13 without being exposed to cathepsin B, as well as cathepsin B itself processed under the same conditions.

Which results are given for “[^64Cu]Cu-DOTA-PEG3-TZ(PEG4-Octr)-PEG2-Trz-PEG3-Val-Cit-pABOC-FTY720 (disulfide)”?
internalized percentage (Internalized/Total Bound%) (SSTR2^high AR42J cells): approximately 40%; normalized uptake, accumulation in SSTR2^high AR42J cells relative to SSTR2^low PC3-Flu cells [1]: six-fold higher

With `CCCCCCCCc1ccc(CCC(N)(CO)CO)cc1` [FTY720, fingolimod, reference compound] as the molecule, how does the EC50 (PC3 cells; Homo sapiens, PC-3, 48 h incubation) read?
The EC50 was roughly 5 µM.

What about the EC50 (PC3 cells; Homo sapiens, PC-3, 72 h incubation) of the same molecule?
The EC50 was roughly 5 µM.

How did the EC50 (PC3 cells; 48 h incubation) turn out when `CCCCCCCCc1ccc(CCC(CO)(CO)NC(=O)OCc2ccc(NC(=O)[C@H](CCCNC(N)=O)NC(=O)[C@@H](NC(=O)CCOCCOCCOCCN=[N+]=[N-])C(C)C)cc2)cc1` [Compound 10, Val-Cit-pABOC-FTY720] was run?
The EC50 was greater than 15 µM.

And the EC50 (PC3 cells; 72 h incubation)?
Its EC50 is greater than 15 µM.

How did the “tumor uptake in SSTR2^low PC3_sgPTP1B tumors (in words)” value [2] turn out when `O=C([O-])CN(CCN(CC(=O)[O-])Cc1cc(CCC(=O)NCCCCCC(=O)NCCCC[C@H](NC(=O)N[C@@H](CCC(=O)O)C(=O)O)C(=O)O)ccc1[O-])Cc1cc(CCC(=O)O)ccc1[O-].[68Ga+3].[OH3+]` [[^68Ga]Ga-PSMA-11] was run?
Its value is “low uptake”.

And the “tumor uptake in SSTR2^high PC3-VC tumors (in words)” value [3]?
Its value is “low uptake”.

Which results are given for “DOTA-PEG3-TZ(PEG4-Octr)-PEG2-Trz-PEG3-Val-Cit-pABOC-FTY720 (disulfide) [Compound 13]”?
cathepsin-B-mediated release of FTY720 (human cathepsin B; 150 µg compound, 20 µg human cathepsin B, 100 mM citrate buffer pH 5.5, cysteine, HPLC and LC-MS read-out): cathepsin-B-mediated release of FTY720 was further confirmed; release of FTY720 in the absence of cathepsin B (control) (human cathepsin B; same conditions without cathepsin B: 100 mM citrate buffer pH 5.5, cysteine, LC-MS read-out (FTY720 peak 366.0488 [M + 2H2O + Na]+)): the peak of 366.0488 was absent
